Results: PubChem BioAssay AID256 (DTP/NCI, 2004)
Several values for one entry are separate records, joined by “and”; a condition that tells them apart may be missing. Equal values may be shown once. Inconclusive results and toxic doses are left out. Residues, ends and D or L forms follow the SMILES beside them. *: point of attachment. Cbz = O=C(OCc1ccccc1)*

System: CD2F1 mice, L1210 leukemia ip, survival T/C
Experiment: NCI In Vivo Anticancer Drug Screen. Data for tumor model L1210 Leukemia (intraperitoneal) in CD2F1 (CDF1) mice
Details: higher = longer survival
In short: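 Compound-dosed mice with transplantable tumor versus matched vehicle controls; endpoint ratio T/C reported.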

[1] = endpoint: mean survival time, dose: 100.0 mg/kg/injection, schedule: Q01DX001 (ip), vehicle: saline with Tween-80
[2] = endpoint: mean survival time, dose: 200.0 mg/kg/injection, schedule: Q01DX001 (ip), vehicle: saline with Tween-80
[3] = endpoint: mean survival time, dose: 100.0 mg/kg/injection, schedule: Q04DX003 (ip), vehicle: saline with Tween-80
[4] = endpoint: mean survival time, dose: 200.0 mg/kg/injection, schedule: Q04DX003 (ip), vehicle: saline with Tween-80
[5] = endpoint: mean survival time, dose: 400.0 mg/kg/injection, schedule: Q04DX003 (ip), vehicle: saline with Tween-80
[6] = endpoint: mean survival time, dose: 100.0 mg/kg/injection, schedule: Q04DX003 (ip), vehicle: saline
[7] = endpoint: mean survival time, dose: 200.0 mg/kg/injection, schedule: Q04DX003 (ip), vehicle: saline
[8] = endpoint: mean survival time, dose: 400.0 mg/kg/injection, schedule: Q04DX003 (ip), vehicle: saline
[9] = endpoint: mean survival time, dose: 100.0 mg/kg/injection, schedule: Q01DX009 (ip), vehicle: saline with Tween-80
[10] = endpoint: mean survival time, dose: 200.0 mg/kg/injection, schedule: Q01DX009 (ip), vehicle: saline with Tween-80
[11] = endpoint: mean survival time, dose: 100.0 mg/kg/injection, schedule: Q04DX002 (ip), vehicle: saline with Tween-80
[12] = endpoint: mean survival time, dose: 200.0 mg/kg/injection, schedule: Q04DX002 (ip), vehicle: saline with Tween-80
[13] = endpoint: mean survival time, dose: 400.0 mg/kg/injection, schedule: Q04DX002 (ip), vehicle: saline with Tween-80
[14] = endpoint: mean survival time, dose: 400.0 mg/kg/injection, schedule: Q01DX009 (ip), vehicle: saline with Tween-80
[15] = endpoint: mean survival time, dose: 50.0 mg/kg/injection, schedule: Q01DX009 (ip), vehicle: saline with Tween-80
[16] = endpoint: mean survival time, dose: 12.5 mg/kg/injection, schedule: Q01DX009 (ip), vehicle: other
[17] = endpoint: mean survival time, dose: 25.0 mg/kg/injection, schedule: Q01DX009 (ip), vehicle: other
[18] = endpoint: mean survival time, dose: 50.0 mg/kg/injection, schedule: Q01DX009 (ip), vehicle: other
[19] = endpoint: mean survival time, dose: 100.0 mg/kg/injection, schedule: Q01DX009 (ip), vehicle: other
[20] = endpoint: mean survival time, dose: 200.0 mg/kg/injection, schedule: Q01DX009 (ip), vehicle: other
[21] = endpoint: mean survival time, dose: 400.0 mg/kg/injection, schedule: Q01DX001 (ip), vehicle: saline with Tween-80

Cc1ccc(C(=O)C(F)F)cc1
T/C (endpoint: mean survival time, dose: 50.0 mg/kg/injection, schedule: Q01DX001 (ip), vehicle: saline with Tween-80): 100 % of control
T/C [1]: 101 % of control
T/C [2]: 101 % of control

CCCCOC1CCC(O)C2CCCCC12 (configuration not stated)
T/C [3]: 105 % of control
T/C [4]: 96 % of control
T/C [5]: 104 % of control

O=[N+]([O-])c1ccc2c(c1)Cc1cc(N(CBr)CBr)ccc1-2
T/C [6]: 109 % of control
T/C [7]: 107 % of control
T/C [8]: 121 % of control

CCOC(=O)NC(=S)Nc1ncn[nH]1
T/C (endpoint: mean survival time, dose: 25.0 mg/kg/injection, schedule: Q01DX001 (ip), vehicle: carboxymethylcellulose (CMC)): 102 % of control
T/C (endpoint: mean survival time, dose: 50.0 mg/kg/injection, schedule: Q01DX001 (ip), vehicle: carboxymethylcellulose (CMC)): 97 % of control
T/C (endpoint: mean survival time, dose: 100.0 mg/kg/injection, schedule: Q01DX001 (ip), vehicle: carboxymethylcellulose (CMC)): 97 % of control
T/C (endpoint: mean survival time, dose: 200.0 mg/kg/injection, schedule: Q01DX001 (ip), vehicle: carboxymethylcellulose (CMC)): 93 % of control

CC(C)(C)Sc1cccnc1 (tested in a mixture with another compound)
T/C [9]: 92 % of control
T/C [10]: 93 % of control

Clc1nc2n[nH]nc2nc1Cl
T/C (endpoint: mean survival time, dose: 3.13 mg/kg/injection, schedule: Q01DX009 (ip), vehicle: saline): 97 % of control
T/C (endpoint: mean survival time, dose: 6.25 mg/kg/injection, schedule: Q01DX009 (ip), vehicle: saline): 100 % of control
T/C (endpoint: mean survival time, dose: 12.5 mg/kg/injection, schedule: Q01DX009 (ip), vehicle: saline): 95 % of control

O=[N+]([O-])c1cc(P(=O)(O)O)c(Cl)cc1Cl
T/C (endpoint: mean survival time, dose: 50.0 mg/kg/injection, schedule: Q04DX003 (ip), vehicle: saline): 101 % of control
T/C [6]: 90 % of control
T/C [7]: 93 % of control

CCOCC(C(=O)OCC)C(=O)OCC
T/C [3]: 104 % of control
T/C [4]: 102 % of control
T/C [5]: 104 % of control

c1ccc(Oc2ccc(Nc3c4ccccc4nc4ccccc34)cc2)cc1
T/C [11]: 101 % of control
T/C [12]: 101 % of control
T/C [13]: 104 % of control

CCC1(CC)NC(=O)N(CCOS(C)(=O)=O)C1=O
T/C (endpoint: mean survival time, dose: 50.0 mg/kg/injection, schedule: Q01DX001 (ip), vehicle: Klucel (hydroxypropylcellulose) (HPC)): 110 % of control
T/C (endpoint: mean survival time, dose: 100.0 mg/kg/injection, schedule: Q01DX001 (ip), vehicle: Klucel (hydroxypropylcellulose) (HPC)): 93 % of control
T/C (endpoint: mean survival time, dose: 200.0 mg/kg/injection, schedule: Q01DX001 (ip), vehicle: Klucel (hydroxypropylcellulose) (HPC)): 93 % of control

CC(=O)N(c1c(F)c(F)cc(F)c1F)c1c(F)c(F)cc(F)c1F
T/C [9]: 95 % of control
T/C [3]: 104 % of control
T/C [10]: 103 % of control
T/C [4]: 102 % of control
T/C [14]: 95 % of control
T/C [5]: 98 % of control

O=C(O)CC(NC(=O)OCc1ccccc1)C(=O)OCc1ccccc1 (configuration not stated)
T/C [9]: 93 % of control
T/C [3]: 104 % of control
T/C [10]: 96 % of control
T/C [4]: 100 % of control
T/C [5]: 87 % of control

OC(CBr)C(O)CBr (configuration not stated)
T/C [15]: 108 % of control
T/C (endpoint: mean survival time, dose: 50.0 mg/kg/injection, schedule: Q01DX009 (ip), vehicle: saline): 108 % of control
T/C [1]: 102 % of control
T/C [9]: 106 % of control
T/C (endpoint: mean survival time, dose: 100.0 mg/kg/injection, schedule: Q01DX009 (ip), vehicle: saline): 108 % of control
T/C [3]: 102 % of control
T/C [2]: 109 % of control
T/C [4]: 86 % of control

CCOC(=O)C(Cc1ccc(CC(NC(C)=O)(C(=O)OCC)C(=O)OCC)cc1)(NC(C)=O)C(=O)OCC
T/C [16]: 96 % of control
T/C [17]: 94 % of control
T/C [18]: 97 % of control
T/C [19]: 91 % of control
T/C [20]: 92 % of control

CC(C)CC(NC(=O)C(C)NC(=O)OCc1ccccc1)C(N)=O (stereo not drawn) (Cbz-Ala-Leu-NH2; configuration not given here)
T/C [9]: 89 % of control

CC(N)(CCC(=O)O)C(=O)O (configuration not stated)
T/C [9]: 96 % of control
T/C [10]: 101 % of control

O=C(NC(=S)Nc1cc(Cl)ccc1Cl)c1cccc(Br)c1
T/C [15]: 100 % of control
T/C [1]: 100 % of control
T/C [9]: 101 % of control and 105 % of control and 106 % of control
T/C [11]: 89 % of control and 95 % of control
T/C [3]: 94 % of control
T/C [2]: 97 % of control
T/C [10]: 98 % of control and 101 % of control
T/C [12]: 90 % of control and 95 % of control
T/C [4]: 90 % of control
T/C [21]: 100 % of control
T/C [14]: 115 % of control (2×) and 105 % of control
T/C [13]: 92 % of control and 95 % of control
T/C [5]: 86 % of control

CCCS(=O)(=O)Nc1ccc(Nc2c3ccccc3nc3ccccc23)c(OC)c1
T/C (endpoint: mean survival time, dose: 3.75 mg/kg/injection, schedule: Q01DX009 (ip), vehicle: saline): 122 % of control

CN(C(=S)S(=O)(=O)C12CC3CC(CC(C3)C1)C2)c1ccccc1
T/C (endpoint: mean survival time, dose: 3.12 mg/kg/injection, schedule: Q01DX009 (ip), vehicle: Klucel (hydroxypropylcellulose) (HPC)): 94 % of control and 96 % of control and 105 % of control
T/C (endpoint: mean survival time, dose: 6.25 mg/kg/injection, schedule: Q01DX009 (ip), vehicle: Klucel (hydroxypropylcellulose) (HPC)): 100 % of control (2×) and 105 % of control
T/C (endpoint: mean survival time, dose: 12.5 mg/kg/injection, schedule: Q01DX009 (ip), vehicle: Klucel (hydroxypropylcellulose) (HPC)): 100 % of control and 102 % of control and 107 % of control
T/C (endpoint: mean survival time, dose: 25.0 mg/kg/injection, schedule: Q01DX009 (ip), vehicle: Klucel (hydroxypropylcellulose) (HPC)): 98 % of control and 102 % of control and 107 % of control
T/C (endpoint: mean survival time, dose: 50.0 mg/kg/injection, schedule: Q01DX009 (ip), vehicle: Klucel (hydroxypropylcellulose) (HPC)): 96 % of control and 104 % of control and 105 % of control
T/C (endpoint: mean survival time, dose: 100.0 mg/kg/injection, schedule: Q01DX009 (ip), vehicle: Klucel (hydroxypropylcellulose) (HPC)): 117 % of control and 96 % of control and 102 % of control

CC1(C)C2CCC1(C(=O)O)CC2
T/C [15]: 100 % of control
T/C [9]: 100 % of control
T/C [3]: 92 % of control
T/C [10]: 97 % of control
T/C [4]: 95 % of control

O=C1C2=Cc3ccccc3CN2Cc2ccccc21
T/C (endpoint: mean survival time, dose: 75.0 mg/kg/injection, schedule: Q01DX001 (ip), vehicle: other): 98 % of control
T/C (endpoint: mean survival time, dose: 150.0 mg/kg/injection, schedule: Q01DX001 (ip), vehicle: other): 101 % of control

CN(C)c1ccc(/C=C2\C=Nc3ccccc32)cc1
T/C (endpoint: mean survival time, dose: 25.0 mg/kg/injection, schedule: Q04DX003 (ip), vehicle: saline with Tween-80): 87 % of control
T/C [3]: 87 % of control

COc1ccc(C(O)c2nnc(C(O)c3ccc(OC)cc3)nn2)cc1 (configuration not stated)
T/C [3]: 86 % of control
T/C [4]: 89 % of control
T/C [5]: 92 % of control

O=C(N/N=C/c1ccc([N+](=O)[O-])cc1[N+](=O)[O-])c1ccncc1
T/C [16]: 95 % of control
T/C [17]: 91 % of control
T/C [18]: 91 % of control
T/C [19]: 89 % of control
T/C [20]: 93 % of control

CCC(=O)C(CC)(c1ccc(OC(C)=O)cc1)c1ccc(OC(C)=O)cc1
T/C [6]: 94 % of control
T/C [7]: 96 % of control
T/C [8]: 96 % of control

O=c1ccccn1C1CC(O)C(CO)O1 (configuration not stated)
T/C (endpoint: mean survival time, dose: 100.0 mg/kg/injection, schedule: Q01DX005 (ip), vehicle: saline): 101 % of control
T/C (endpoint: mean survival time, dose: 200.0 mg/kg/injection, schedule: Q01DX005 (ip), vehicle: saline): 103 % of control

COc1ccccc1-n1c(O)c(N=Nc2ccccc2)c(=O)n(-c2ccccc2OC)c1=S
T/C [1]: 105 % of control
T/C [2]: 102 % of control

COC(=O)CC(=O)C12OC1CC1C3CC=C4CC(OC(C)=O)CCC4(C)C3CCC12C (configuration not stated)
T/C (endpoint: mean survival time, dose: 75.0 mg/kg/injection, schedule: Q04DX003 (sc), vehicle: steriod suspending solution): 101 % of control
T/C (endpoint: mean survival time, dose: 150.0 mg/kg/injection, schedule: Q04DX003 (sc), vehicle: steriod suspending solution): 103 % of control
T/C (endpoint: mean survival time, dose: 300.0 mg/kg/injection, schedule: Q04DX003 (sc), vehicle: steriod suspending solution): 97 % of control

CCCCNc1ccc2nnc(C)n2n1
T/C (endpoint: median survival time, dose: 50.0 mg/kg/injection, schedule: Q01DX005 (ip), vehicle: DMSO): 100 % of control and 101 % of control
T/C (endpoint: median survival time, dose: 100.0 mg/kg/injection, schedule: Q01DX005 (ip), vehicle: DMSO): 97 % of control and 100 % of control
T/C (endpoint: median survival time, dose: 200.0 mg/kg/injection, schedule: Q01DX005 (ip), vehicle: DMSO): 104 % of control

Cc1cc(N2C(=O)CSC2=S)ccc1Br
T/C [1]: 95 % of control
T/C [2]: 97 % of control
T/C [21]: 100 % of control

[Cl][Pt+2][Cl].[NH-]C1CCCC1[NH-] (configuration not stated)
T/C (endpoint: median survival time, dose: 10.0 mg/kg/injection, schedule: Q04DX003 (ip), vehicle: Klucel (hydroxypropylcellulose) (HPC)): 166 % of control and 173 % of control
T/C (endpoint: median survival time, dose: 20.0 mg/kg/injection, schedule: Q04DX003 (ip), vehicle: Klucel (hydroxypropylcellulose) (HPC)): 196 % of control and 333 % of control
